Results taken from patent publication US11780893B2, “Kv1.3 blockers” (Zealand Pharma A/S, priority 2019, dated 2023).
Like-named read-outs stand apart in the source and are kept apart here. Bridge positions count the residues as written; N and C are the ends. Square brackets hold non-standard residues; d marks the D form. Peptide text beside a SMILES is read from it. Nle = CCCC[C@H](N)C(=O)O

Experiments:
in vivo = conditions: male, rat, sc, 70 nmol/kg
Kv1.3 = target: T1, Kv1.3 (Homo sapiens, UniProt P22001); experiment: cell-based; conditions: CHO cells, whole-cell patch clamp; read-out: Potency IC50 (nM) Kv1.3
T1 construct: expressed in transfected cells; host or cells: Chinese Hamster Ovary (CHO)

Kv1.2 = target: T2, Kv1.2 (Homo sapiens, UniProt P16389); experiment: cell-based; conditions: CHO cells, whole-cell patch clamp; read-out: Potency IC50 (nM) Kv1.2
T2 construct: expressed in transfected cells; host or cells: Chinese Hamster Ovary (CHO)

Kv1.1 = target: T3, Kv1.1 (Homo sapiens, UniProt Q09470); experiment: cell-based; conditions: for IC50: CHO cells, whole-cell patch clamp, read-out: Potency IC50 (nM) Kv1.1; for Selectivity Kv1.1/Kv1.3: ratio IC50[Kv1.1]/IC50[Kv1.3]
T3 construct: expressed in transfected cells; host or cells: Chinese Hamster Ovary (CHO)

Rat whole blood = Rat whole blood (Rattus norvegicus, UniProt P15384)
[1] = target: T4, human Kv1.3 voltage-gated K+ channel (Homo sapiens, UniProt P22001); experiment: cell-based; conditions: inhibition of thallium flux, CHO-DUKX cells with human Kv1.3; read-out: IC50
T4 construct: host or cells: CHO-DUKX

[2] = tested on: Human peripheral blood mononuclear cells (PBMCs); experiment: IL-2 release from anti-CD3 stimulated human PBMCs (Example 4b); assay type: cell-based; conditions: geometric mean, at least 6 replicates, read-out: anti-CD3 PBMC/IL-2 IC50
Procedure: Human peripheral blood mononuclear cells (PBMCs) were used to assess the effects of Kv1.3 blockers on T-cell activation as determined by IL-2 release after stimulation with anti-CD3.
Human PBMCs were obtained from Precision for Medicine (Frederick, Md.). Cells from 5 donors were used. Plate-bound anti-CD3 was used to stimulate bulk T cells in the PBMC preparations. Briefly, 96-well plates were coated with anti-CD3 antibody for app. 16 hours at 5° C., using 50 μl of a 1 μg/ml anti-CD3 solution diluted in PBS. Thereafter the plates were washed twice.
Kv1.3 blockers were subsequently diluted in medium (RPMI 1640 with Glutamax-I containing, 10% v/v Fetal Bovine Serum, 1% v/v penicillin-streptomycin Solution) and added in a volume of 50 μl. The compounds indicated in Table 4b were used at concentrations ranging from […] to 1000 nM (half log dilutions, starting concentrations varying).
Finally, 50.000 PBMCs in the same medium were added to each well in a volume of 50 μl, giving a final volume of 100 μl per well. The plates were incubated for 20-24 hours in a 37° C./5% CO2 incubator. After centrifugation of the plates, 25 μl supernatant was transferred to IL-2 detection plates (MSD Human IL-2 Tissue Culture Kit, cat #K151AHB-2) and IL-2 was measures as described by the manufacturer (Meso Scale Discovery, Rockville, Md., USA).
Results are shown in Table 4b as geometric mean of IC50 values obtained from anti-CD3 stimulated human PBMC assays. All values derive from at least 6 replicates.

[3] = tested on: delayed-type hypersensitivity (DTH) ear swelling response; assay type: in vivo, rat; conditions: CsA 10 mg/kg per os, +/- SD
Kv1.6 = target: T5, Kv1.6 (Homo sapiens, UniProt P17658); experiment: cell-based; conditions: for IC50: CHO cells, whole-cell patch clamp, read-out: Potency IC50 (nM) Kv1.6; for Selectivity Kv1.6/Kv1.3: ratio IC50[Kv1.6]/IC50[Kv1.3]
T5 construct: expressed in transfected cells; host or cells: Chinese Hamster Ovary (CHO)

[4] = Exp #1, Kv1.3 blocker 70 nmol/kg SC 24 hrs prior to KLH challenge
[5] = Exp #2, Kv1.3 blocker 70 nmol/kg SC 24 hrs prior to KLH challenge
[6] = Exp #3, Kv1.3 blocker 50 nmol/kg SC 24 hrs prior to KLH challenge

T3 sequence (Q09470 whole entry): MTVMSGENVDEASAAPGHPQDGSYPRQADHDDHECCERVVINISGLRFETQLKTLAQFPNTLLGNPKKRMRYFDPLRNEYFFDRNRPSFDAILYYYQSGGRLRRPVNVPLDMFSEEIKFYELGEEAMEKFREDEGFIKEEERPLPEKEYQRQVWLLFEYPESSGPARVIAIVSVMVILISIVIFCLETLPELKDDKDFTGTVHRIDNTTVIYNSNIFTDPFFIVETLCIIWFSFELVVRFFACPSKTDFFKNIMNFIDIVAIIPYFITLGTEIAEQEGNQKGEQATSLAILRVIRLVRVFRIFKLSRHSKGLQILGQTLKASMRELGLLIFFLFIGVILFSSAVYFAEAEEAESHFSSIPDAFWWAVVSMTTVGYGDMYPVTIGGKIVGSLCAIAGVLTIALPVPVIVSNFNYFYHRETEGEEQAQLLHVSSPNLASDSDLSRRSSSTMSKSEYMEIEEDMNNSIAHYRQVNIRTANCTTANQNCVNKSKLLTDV
T5 sequence (P17658 whole entry): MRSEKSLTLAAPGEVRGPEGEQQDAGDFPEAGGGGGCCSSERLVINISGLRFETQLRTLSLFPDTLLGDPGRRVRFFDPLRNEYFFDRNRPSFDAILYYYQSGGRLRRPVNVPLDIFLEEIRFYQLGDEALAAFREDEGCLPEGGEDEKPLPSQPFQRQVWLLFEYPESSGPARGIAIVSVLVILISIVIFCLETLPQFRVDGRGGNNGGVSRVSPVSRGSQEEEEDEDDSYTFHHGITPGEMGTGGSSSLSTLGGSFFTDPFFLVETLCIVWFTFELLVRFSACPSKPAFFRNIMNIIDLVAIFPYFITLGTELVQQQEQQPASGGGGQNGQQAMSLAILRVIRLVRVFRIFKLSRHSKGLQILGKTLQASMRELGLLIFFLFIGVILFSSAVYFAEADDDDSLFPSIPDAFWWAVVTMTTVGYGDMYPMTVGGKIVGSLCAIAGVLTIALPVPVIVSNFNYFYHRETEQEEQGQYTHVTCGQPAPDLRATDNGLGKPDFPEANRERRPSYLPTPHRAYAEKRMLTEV
T1 sequence (P22001 whole entry): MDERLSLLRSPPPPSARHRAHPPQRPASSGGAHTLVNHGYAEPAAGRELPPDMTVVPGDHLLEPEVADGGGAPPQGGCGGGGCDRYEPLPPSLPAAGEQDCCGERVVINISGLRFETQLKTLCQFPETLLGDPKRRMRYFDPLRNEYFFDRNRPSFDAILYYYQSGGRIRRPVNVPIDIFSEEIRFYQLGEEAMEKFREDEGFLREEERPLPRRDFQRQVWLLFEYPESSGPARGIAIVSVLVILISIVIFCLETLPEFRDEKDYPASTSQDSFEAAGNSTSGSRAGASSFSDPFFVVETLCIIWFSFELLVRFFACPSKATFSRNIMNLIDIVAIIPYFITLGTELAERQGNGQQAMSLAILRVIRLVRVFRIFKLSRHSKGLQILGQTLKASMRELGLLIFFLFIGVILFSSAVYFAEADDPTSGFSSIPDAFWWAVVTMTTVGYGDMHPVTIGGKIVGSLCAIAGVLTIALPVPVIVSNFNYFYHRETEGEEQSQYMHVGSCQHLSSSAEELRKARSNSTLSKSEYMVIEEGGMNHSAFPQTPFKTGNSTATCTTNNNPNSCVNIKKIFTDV
T4 sequence (P22001 whole entry): as above
T2 sequence (P16389 whole entry): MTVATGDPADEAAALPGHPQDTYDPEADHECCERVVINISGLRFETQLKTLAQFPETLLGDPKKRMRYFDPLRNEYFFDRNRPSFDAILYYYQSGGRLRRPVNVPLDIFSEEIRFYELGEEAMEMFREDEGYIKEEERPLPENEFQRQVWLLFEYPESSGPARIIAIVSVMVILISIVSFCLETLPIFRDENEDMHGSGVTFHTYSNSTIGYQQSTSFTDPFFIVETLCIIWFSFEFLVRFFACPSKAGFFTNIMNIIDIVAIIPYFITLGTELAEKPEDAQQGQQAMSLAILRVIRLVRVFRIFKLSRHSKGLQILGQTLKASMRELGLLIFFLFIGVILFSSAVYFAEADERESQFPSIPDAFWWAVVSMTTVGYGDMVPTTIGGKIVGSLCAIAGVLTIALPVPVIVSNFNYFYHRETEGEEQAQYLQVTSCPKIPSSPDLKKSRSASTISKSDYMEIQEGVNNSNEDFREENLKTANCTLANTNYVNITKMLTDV
Rat whole blood, sequence (P15384 whole entry): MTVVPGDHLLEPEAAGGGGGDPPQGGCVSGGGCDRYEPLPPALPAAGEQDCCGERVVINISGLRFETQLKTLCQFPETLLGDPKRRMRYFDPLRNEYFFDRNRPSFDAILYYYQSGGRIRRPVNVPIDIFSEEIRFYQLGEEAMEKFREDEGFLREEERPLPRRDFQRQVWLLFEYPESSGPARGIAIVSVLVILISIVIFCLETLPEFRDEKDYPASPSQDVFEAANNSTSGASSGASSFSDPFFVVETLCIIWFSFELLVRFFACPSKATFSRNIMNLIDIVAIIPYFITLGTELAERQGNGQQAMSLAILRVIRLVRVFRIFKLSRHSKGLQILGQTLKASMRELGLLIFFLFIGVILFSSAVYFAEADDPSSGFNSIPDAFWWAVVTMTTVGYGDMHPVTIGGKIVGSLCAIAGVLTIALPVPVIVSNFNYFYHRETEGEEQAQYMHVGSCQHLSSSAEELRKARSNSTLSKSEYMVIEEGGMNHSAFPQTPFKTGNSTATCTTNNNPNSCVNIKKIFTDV

Structure (SMILES) | AUC(0-inf) (in vivo) [µM·h] | Cmax (in vivo) [nM] | half-life (in vivo) [min] | IC50 (Kv1.3) [nM] | IC50 (Kv1.2) [nM] | IC50 (Kv1.1) [nM] | Selectivity Kv1.1/Kv1.3 (Kv1.1) | IC50 (Rat whole blood) [nM] | IC50 [1] [nM] | IC50 [2] [nM] | % inhibition of ear thickness (AUC of Δ ear thickness 0-48 hours) [3, 4] | % inhibition of ear thickness (AUC of Δ ear thickness 0-48 hours) [3, 5] | % inhibition of ear thickness (AUC of Δ ear thickness 0-48 hours) [3, 6] | IC50 (Kv1.6) [nM] | Selectivity Kv1.6/Kv1.3 (Kv1.6) | % inhibition of ear thickness (AUC of Δ ear thickness 0-48 hours) ([3]; Exp #4, Kv1.3 blocker 100 nmol/kg SC 24 hrs prior to KLH challenge)
CC[C@H](C)[C@@H]1NC(=O)[C@H](C)NC(=O)[C@H](CCCCN)NC(=O)[C@H](CC(C)C)NC(=O)[C@@H]2CSSC[C@@H](C(=O)N[C@@H](Cc3ccc(O)cc3)C(=O)N3CCC[C@H]3C(=O)N[C@@H](CCCNC(=N)N)C(=O)O)NC(=O)[C@H](CCCCN)NC(=O)[C@@H]3CSSC[C@H](NC(=O)[C@H](CCC(=O)O)NC(=O)[C@H](C(C)C)NC(=O)[C@H](CO)NC(=O)[C@H](C)NC(=O)[C@H](CO)NC(=O)[C@@H](NC(=O)[C@H](CCCNC(=N)N)NC(=O)[C@H](CCSC)NC(=O)[C@H](CC(=O)O)NC(=O)[C@H](CCSC)NC(=O)[C@@H](N)CC(N)=O)CSSC[C@H](NC(=O)[C@H](CCCCN)NC(=O)CNC(=O)[C@H](Cc4ccccc4)NC(=O)[C@H]([C@@H](C)CC)NC(=O)[C@H](CO)NC(=O)CNC1=O)C(=O)N[C@@H](CCSC)C(=O)N[C@@H](CC(N)=O)C(=O)N[C@@H](CCCCN)C(=O)N[C@@H](CCCCN)C(=O)N3)C(=O)N[C@@H](CCCCN)C(=O)N[C@@H](CCC(N)=O)C(=O)N[C@@H](CCCCN)C(=O)N2 [Compound 3] (H-NMDMRCSASVECKQKCLKAIGSIFGKCMNKKCKCYPR-OH; disulfide 6-27, 12-32, 16-34) | 0.0839 | 36.9 | 59.4 | 0.27 | 409 | > 3000 | >11300 | ≤ 1 | 0.3 | 0.06 | 38.8 (+/−9.7) % | 25.0 (+/−12.5) % | 37.3 (+/−13.8) % | > 3000 | >11300 | –
CCCC[C@H](NC(=O)[C@@H]1CCCN1)C(=O)N[C@@H](CC(=O)O)C(=O)N[C@@H](CCCC)C(=O)N[C@@H](CCCNC(=N)N)C(=O)N[C@H]1CSSC[C@@H]2NC(=O)[C@H](CCCCN)NC(=O)CNC(=O)[C@H](Cc3ccccc3)NC(=O)[C@H]([C@@H](C)CC)NC(=O)[C@H](CO)NC(=O)CNC(=O)[C@H]([C@@H](C)CC)NC(=O)[C@H](C)NC(=O)[C@H](CCCCN)NC(=O)[C@H](CC(C)C)NC(=O)[C@@H]3CSSC[C@@H](C(=O)N[C@@H](Cc4ccc(O)cc4)C(=O)N4CCC[C@H]4C(=O)N[C@@H](CCCNC(=N)N)C(N)=O)NC(=O)[C@H](CCCCN)NC(=O)[C@H](CSSC[C@H](NC(=O)[C@H](CCC(=O)O)NC(=O)[C@H](C(C)C)NC(=O)[C@H](CO)NC(=O)[C@H](C)NC(=O)[C@H](CO)NC1=O)C(=O)N[C@@H](CCCCN)C(=O)N[C@@H](CCC(N)=O)C(=O)N[C@@H](CCCCN)C(=O)N3)NC(=O)[C@H](CCCCN)NC(=O)[C@H](CCCCN)NC(=O)[C@H](CC(N)=O)NC(=O)[C@H](CCCC)NC2=O [Compound 41] (H-P[Nle]D[Nle]RCSASVECKQKCLKAIGSIFGKC[Nle]NKKCKCYPR-NH2; disulfide 6-27, 12-32, 16-34) | – | – | – | 0.18 | 939 | > 3000 | >17100 | ≤ 1 | 0.15 | 0.03 | 46.9 (+/−10.9) % | 27.7 (+/−11.5) % | 22.2 (+/−11.1) % | > 3000 | >17100 | 41.9 (+/−12.5) %
